pIC50: −log10 of the molar value.
Legend:
Test in all cases: cells
[1] = test system: DEL; format: functional, cell-based; details: Homo sapiens;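 further: growth inhibition of the human DEL cell line, read out with a cell viability assay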
Description: SANGER: Inhibition of human DEL cell growth in a cell viability assay.

[2] = test system: UACC-62; format: functional, cell-based, Homo sapiens; details: Homo sapiens, UACC-62;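 further: growth inhibition of human UACC-62 cells, read out by a cell viability assay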
Description: SANGER: Inhibition of human UACC-62 cell growth in a cell viability assay.

[3] = test system: Huh-7; format: functional, cell-based, Homo sapiens; details: Homo sapiens, Huh-7;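 further: HuH-7 cell growth inhibition, read out with a cell viability assay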
Description: SANGER: Inhibition of human HuH-7 cell growth in a cell viability assay.

[4] = test system: KOSC-2; format: functional, cell-based, Homo sapiens; details: Homo sapiens, KOSC-2;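 further: growth inhibition of KOSC-2 cells, read out by a cell viability assay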
Description: SANGER: Inhibition of human KOSC-2 cell growth in a cell viability assay.

[5] = test system: HCC1954; format: functional, cell-based, Homo sapiens; details: Homo sapiens, HCC1954;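 further: growth inhibition of human HCC1954 cells, read out with a cell viability assay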
Description: SANGER: Inhibition of human HCC1954 cell growth in a cell viability assay.

[6] = test system: KALS-1; format: functional, cell-based, Homo sapiens; details: Homo sapiens, KALS-1;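 further: growth inhibition of KALS-1 cells, determined with a cell viability assay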
Description: SANGER: Inhibition of human KALS-1 cell growth in a cell viability assay.

[7] = test system: VA-ES-BJ; format: functional, cell-based, Homo sapiens; details: Homo sapiens, VA-ES-BJ;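 further: growth inhibition of the VA-ES-BJ cell line, read out by a cell viability assay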
Description: SANGER: Inhibition of human VA-ES-BJ cell growth in a cell viability assay.

[8] = test system: FaDu; format: functional, cell-based, Homo sapiens; details: Homo sapiens, FaDu;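 further: cell viability readout of growth inhibition in FaDu cells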
Description: SANGER: Inhibition of human FADU cell growth in a cell viability assay.

[9] = test system: BHY; format: functional, cell-based, Homo sapiens; details: Homo sapiens, BHY;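 further: cell growth inhibition read out by a viability assay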
Description: SANGER: Inhibition of human BHY cell growth in a cell viability assay.

[10] = test system: SAS; format: functional, cell-based, Homo sapiens; details: Homo sapiens, SAS;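 further: growth inhibition of SAS cells, read out with a cell viability assay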
Description: SANGER: Inhibition of human SAS cell growth in a cell viability assay.

[11] = test system: SBC-1; format: functional, cell-based; details: Homo sapiens;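 further: cell viability assay measuring growth inhibition of the SBC-1 cell line, IC50 being the concentration that halves growth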
Description: SANGER: Inhibition of human SBC-1 cell growth in a cell viability assay.

[12] = test system: GT3TKB; format: functional, cell-based, Homo sapiens; details: Homo sapiens, GT3TKB;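 further: growth inhibition of the cell line, read out with a cell viability assay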
Description: SANGER: Inhibition of human GT3TKB cell growth in a cell viability assay.

[13] = test system: SAOS-2; format: functional, cell-based, Homo sapiens; details: Homo sapiens, SAOS-2;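 further: growth inhibition of human Saos-2 cells determined by a cell viability assay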
Description: SANGER: Inhibition of human Saos-2 cell growth in a cell viability assay.

[14] = test system: RO82-W-1; format: functional, cell-based, Homo sapiens; details: Homo sapiens, RO82-W-1;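 further: growth inhibition of human RO82-W-1 cells, measured with a cell viability assay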
Description: SANGER: Inhibition of human RO82-W-1 cell growth in a cell viability assay.

[15] = test system: OAW-28; format: functional, cell-based, Homo sapiens; details: Homo sapiens, OAW-28;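 further: growth inhibition of OAW-28 cells, read out with a cell viability assay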
Description: SANGER: Inhibition of human OAW-28 cell growth in a cell viability assay.

[16] = test system: RPMI-8866; format: functional, cell-based; details: Homo sapiens
Description: SANGER: Inhibition of human RPMI-8866 cell growth in a cell viability assay.

[17] = test system: D-502MG; format: functional, cell-based, Homo sapiens; details: Homo sapiens, D-502MG
Description: SANGER: Inhibition of human D-502MG cell growth in a cell viability assay.

[18] = test system: GCT; format: functional, cell-based, Homo sapiens; details: Homo sapiens, GCT;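 further: GCT cell line proliferation inhibition, read out with a cell viability assay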
Description: SANGER: Inhibition of human GCT cell growth in a cell viability assay.

[19] = test system: SW756; format: functional, cell-based, Homo sapiens; details: Homo sapiens, SW756;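 further: growth inhibition of human SW756 cells, read out with a cell viability assay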
Description: SANGER: Inhibition of human SW756 cell growth in a cell viability assay.

[20] = test system: MFM-223; format: functional, cell-based, Homo sapiens; details: Homo sapiens, MFM-223
Description: SANGER: Inhibition of human MFM-223 cell growth in a cell viability assay.

[21] = test system: NCI-H1355; format: functional, cell-based, Homo sapiens; details: Homo sapiens, NCI-H1355;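 further: growth inhibition of human NCI-H1355 cells, read out by a cell viability assay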
Description: SANGER: Inhibition of human NCI-H1355 cell growth in a cell viability assay.

[22] = test system: RS4-11; format: functional, cell-based; details: Homo sapiens;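 further: growth inhibition of RS4-11 cells, read out by a cell viability assay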
Description: SANGER: Inhibition of human RS4-11 cell growth in a cell viability assay.

[23] = test system: M14; format: functional, cell-based, Homo sapiens; details: Homo sapiens, M14;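 further: growth inhibition of M14 cells, read out with a cell viability assay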
Description: SANGER: Inhibition of human M14 cell growth in a cell viability assay.

[24] = test system: SK-OV-3; format: functional, cell-based, Homo sapiens; details: Homo sapiens, SK-OV-3;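 further: growth inhibition of SK-OV-3 human cells, read out with a cell viability assay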
Description: SANGER: Inhibition of human SK-OV-3 cell growth in a cell viability assay.

[25] = test system: MMAC-SF; format: functional, cell-based, Homo sapiens; details: Homo sapiens, MMAC-SF;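 further: growth inhibition of human MMAC-SF cells, read out with a cell viability assay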
Description: SANGER: Inhibition of human MMAC-SF cell growth in a cell viability assay.

[26] = test system: MHH-ES-1; format: functional, cell-based, Homo sapiens; details: Homo sapiens, MHH-ES-1;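 further: cell growth inhibition measured by a cell viability assay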
Description: SANGER: Inhibition of human MHH-ES-1 cell growth in a cell viability assay.

[27] = test system: NCI-H1304; format: functional, cell-based; details: Homo sapiens;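 further: growth inhibition of the cancer cell line, measured in a cell viability assay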
Description: SANGER: Inhibition of human NCI-H1304 cell growth in a cell viability assay.

[28] = test system: MS-1; format: functional, cell-based; details: Homo sapiens;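 further: growth inhibition of MS-1 cells, read out by cell viability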
Description: SANGER: Inhibition of human MS-1 cell growth in a cell viability assay.

[29] = test system: ME-180; format: functional, cell-based; details: Homo sapiens;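 further: cell viability assay measuring growth inhibition of ME-180 cells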
Description: SANGER: Inhibition of human ME-180 cell growth in a cell viability assay.

[30] = test system: IST-MEL1; format: functional, cell-based, Homo sapiens; details: Homo sapiens, IST-MEL1;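 further: growth inhibition of the cell line, read out with a cell viability assay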
Description: SANGER: Inhibition of human IST-MEL1 cell growth in a cell viability assay.

[31] = test system: P12-Ichikawa; format: functional, cell-based; details: Homo sapiens
[32] = test system: BPH-1; format: functional, cell-based, Homo sapiens; details: Homo sapiens, BPH-1;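 further: cell viability assay measuring growth inhibition of human BPH-1 cells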
Description: SANGER: Inhibition of human BPH-1 cell growth in a cell viability assay.

[33] = test system: HCC1806; format: functional, cell-based, Homo sapiens; details: Homo sapiens, HCC1806;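 further: growth inhibition of the cancer cell line, determined with a cell viability assay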
Description: SANGER: Inhibition of human HCC1806 cell growth in a cell viability assay.

[34] = test system: A498; format: functional, cell-based, Homo sapiens; details: Homo sapiens, A498;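 further: growth inhibition of human A498 cells, read out with a cell viability assay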
Description: SANGER: Inhibition of human A498 cell growth in a cell viability assay.

[35] = test system: DMS-273; format: functional, cell-based, Homo sapiens; details: Homo sapiens, DMS-273
Description: SANGER: Inhibition of human DMS-273 cell growth in a cell viability assay.

[36] = test system: BCPAP; format: functional, cell-based, Homo sapiens; details: Homo sapiens, BCPAP;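 further: growth inhibition of BCPAP cells, read out in a cell viability assay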
Description: SANGER: Inhibition of human BCPAP cell growth in a cell viability assay.

[37] = test system: COR-L23; format: functional, cell-based, Homo sapiens; details: Homo sapiens, COR-L23;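 further: cell viability assay measuring how strongly compounds suppress growth of COR-L23 cells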
Description: SANGER: Inhibition of human COR-L23 cell growth in a cell viability assay.

[38] = test system: CAKI-1; format: functional, cell-based, Homo sapiens; details: Homo sapiens, CAKI-1;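 further: growth inhibition of CAKI-1 cells, measured by a cell viability assay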
Description: SANGER: Inhibition of human CAKI-1 cell growth in a cell viability assay.

[39] = test system: RMG-I; format: functional, cell-based, Homo sapiens; details: Homo sapiens, RMG-I;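 further: growth inhibition of human RMG-I cells, read out with a cell viability assay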
Description: SANGER: Inhibition of human RMG-I cell growth in a cell viability assay.

[40] = test system: CaR-1; format: functional, cell-based, Homo sapiens; details: Homo sapiens, CaR-1;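 further: growth inhibition of human CaR-1 cancer cells, read out with a cell viability assay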
Description: SANGER: Inhibition of human CaR-1 cell growth in a cell viability assay.

[41] = test system: TE-11; format: functional, cell-based, Homo sapiens; details: Homo sapiens, TE-11;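 further: growth inhibition of human TE-11 cells, read out by a cell viability assay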
Description: SANGER: Inhibition of human TE-11 cell growth in a cell viability assay.

[42] = test system: NUGC-3; format: functional, cell-based, Homo sapiens; details: Homo sapiens, NUGC-3;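 further: growth inhibition of human NUGC-3 cells, read out with a cell viability assay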
Description: SANGER: Inhibition of human NUGC-3 cell growth in a cell viability assay.

[43] = test system: A101D; format: functional, cell-based, Homo sapiens; details: Homo sapiens, A101D;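 further: growth inhibition of the cell line, measured with a viability assay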
Description: SANGER: Inhibition of human A101D cell growth in a cell viability assay.

[44] = test system: KYSE-180; format: functional, cell-based, Homo sapiens; details: Homo sapiens, KYSE-180;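 further: growth inhibition of KYSE-180 cells, read out with a cell viability assay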
Description: SANGER: Inhibition of human KYSE-180 cell growth in a cell viability assay.

[45] = test system: NCI-H2122; format: functional, cell-based, Homo sapiens; details: Homo sapiens, NCI-H2122;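 further: growth inhibition of the cells, read out with a cell viability assay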
Description: SANGER: Inhibition of human NCI-H2122 cell growth in a cell viability assay.

[46] = test system: A4-Fuk; format: functional, cell-based; details: Homo sapiens;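 further: growth inhibition of A4-Fuk cells, read out by a cell viability assay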
Description: SANGER: Inhibition of human A4-Fuk cell growth in a cell viability assay.

[47] = test system: SK-UT-1; format: functional, cell-based, Homo sapiens; details: Homo sapiens, SK-UT-1;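 further: growth inhibition of SK-UT-1 cells, measured by a cell viability assay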
Description: SANGER: Inhibition of human SK-UT-1 cell growth in a cell viability assay.

[48] = test system: EW-1; format: functional, cell-based, Homo sapiens; details: Homo sapiens, EW-1;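 further: growth inhibition of the human EW-1 cell line, read out by a cell viability assay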
Description: SANGER: Inhibition of human EW-1 cell growth in a cell viability assay.

[49] = test system: MDA-MB-453; format: functional, cell-based, Homo sapiens; details: Homo sapiens, MDA-MB-453
Description: SANGER: Inhibition of human MDA-MB-453 cell growth in a cell viability assay.

[50] = test system: IST-SL1; format: functional, cell-based, Homo sapiens; details: Homo sapiens, IST-SL1;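 further: growth inhibition of human IST-SL1 cells, read out with a cell viability assay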
Description: SANGER: Inhibition of human IST-SL1 cell growth in a cell viability assay.

Which results are given for `C[C@]1(O)C[C@@H](c2nc(-c3ccc4ccc(-c5ccccc5)nc4c3)c3c(N)nccn32)C1` [LINSITINIB]?
pIC50 [1]: < 5.59; pIC50 [2]: < 5.59; pIC50 [3]: 5.80; pIC50 [4]: < 5.59; pIC50 [5]: < 5.59; pIC50 [6]: < 5.59; pIC50 [7]: < 5.59; pIC50 [8]: < 5.59; pIC50 [9]: < 5.59; pIC50 [10]: < 5.59; pIC50 [11]: < 5.59; pIC50 [12]: < 5.59; pIC50 [13]: 6.78; pIC50 [14]: < 5.59; pIC50 [15]: < 5.59; pIC50 [16]: < 5.59; pIC50 [17]: < 5.59; pIC50 [18]: < 5.59; pIC50 [19]: < 5.59; pIC50 [20]: < 5.59; pIC50 [21]: 6.74; pIC50 [22]: 6.47; pIC50 [23]: < 5.59; pIC50 [24]: < 5.59; pIC50 [25]: < 5.59; pIC50 [26]: < 5.59; pIC50 [27]: < 5.59; pIC50 [28]: < 5.59; pIC50 [29]: < 5.59; pIC50 [30]: < 5.59; pIC50 [31]: < 5.59; pIC50 [32]: < 5.59; pIC50 [33]: < 5.59; pIC50 [34]: < 5.59; pIC50 [35]: < 5.59; pIC50 [36]: < 5.59; pIC50 [37]: < 5.59; pIC50 [38]: < 5.59; pIC50 [39]: < 5.59; pIC50 [40]: < 5.59; pIC50 [41]: 7.11; pIC50 [42]: < 5.59; pIC50 [43]: < 5.59; pIC50 [44]: < 5.59; pIC50 [45]: 6.63; pIC50 [46]: 7.55; pIC50 [47]: < 5.59; pIC50 [48]: 7.07; pIC50 [49]: < 5.59; pIC50 [50]: < 5.59

With `C=CCc1cccc(/C=N/NC(=O)CN2CCN(Cc3ccccc3)CC2)c1O` [PAC-1] as the compound, how does the pIC50 [1] read?
Its pIC50 is < 5.59.

What about the pIC50 [2] of the same compound?
The pIC50 was < 5.59.

What about the pIC50 [3] of the same compound?
Its pIC50 is < 5.59.

What about the pIC50 [4] of the same compound?
The pIC50 was < 5.59.

And the pIC50 [5]?
The pIC50 was < 5.59.

And the pIC50 [6]?
The pIC50 was < 5.59.

What about the pIC50 [7] of the same compound?
Its pIC50 is < 5.59.

What about the pIC50 [8] of the same compound?
The pIC50 was < 5.59.

And the pIC50 [9]?
The pIC50 was < 5.59.

What about the pIC50 [10] of the same compound?
The pIC50 was < 5.59.

What about the pIC50 [11] of the same compound?
Its pIC50 is < 5.59.

And the pIC50 [12]?
Its pIC50 is < 5.59.

What about the pIC50 [13] of the same compound?
Its pIC50 is < 5.59.

What about the pIC50 [14] of the same compound?
The pIC50 was < 5.59.

What about the pIC50 [15] of the same compound?
The pIC50 was < 5.59.

What about the pIC50 [16] of the same compound?
The pIC50 was < 5.59.

And the pIC50 [17]?
Its pIC50 is < 5.59.

What about the pIC50 [18] of the same compound?
Its pIC50 is < 5.59.

And the pIC50 [19]?
Its pIC50 is < 5.59.

And the pIC50 [20]?
Its pIC50 is < 5.59.

And the pIC50 [21]?
Its pIC50 is < 5.59.

And the pIC50 [22]?
Its pIC50 is < 5.59.

What about the pIC50 [23] of the same compound?
The pIC50 was < 5.59.

What about the pIC50 [24] of the same compound?
The pIC50 was 5.78.

What about the pIC50 [25] of the same compound?
The pIC50 was < 5.59.

And the pIC50 [26]?
The pIC50 was < 5.59.

And the pIC50 [27]?
The pIC50 was < 5.59.

What about the pIC50 [28] of the same compound?
Its pIC50 is < 5.59.

And the pIC50 [29]?
The pIC50 was < 5.59.

And the pIC50 [30]?
Its pIC50 is < 5.59.

What about the pIC50 [31] of the same compound?
Its pIC50 is < 5.59.

And the pIC50 [32]?
The pIC50 was < 5.59.

What about the pIC50 [33] of the same compound?
The pIC50 was < 5.59.

What about the pIC50 [34] of the same compound?
Its pIC50 is < 5.59.

And the pIC50 [35]?
The pIC50 was < 5.59.

What about the pIC50 [36] of the same compound?
Its pIC50 is < 5.59.

And the pIC50 [37]?
Its pIC50 is < 5.59.

And the pIC50 [38]?
The pIC50 was < 5.59.

And the pIC50 [39]?
Its pIC50 is < 5.59.

And the pIC50 [40]?
Its pIC50 is < 5.59.

And the pIC50 [41]?
The pIC50 was < 5.59.

What about the pIC50 [42] of the same compound?
Its pIC50 is < 5.59.

What about the pIC50 [43] of the same compound?
The pIC50 was < 5.59.

What about the pIC50 [44] of the same compound?
The pIC50 was < 5.59.

What about the pIC50 [45] of the same compound?
Its pIC50 is < 5.59.

What about the pIC50 [46] of the same compound?
Its pIC50 is < 5.59.

And the pIC50 [47]?
The pIC50 was < 5.59.

What about the pIC50 [48] of the same compound?
Its pIC50 is < 5.59.

And the pIC50 [49]?
The pIC50 was < 5.59.

And the pIC50 [50]?
The pIC50 was < 5.59.

What does the source list for `CCC1=C[C@@H]2CN(C1)Cc1c([nH]c3ccccc13)[C@@](C(=O)OC)(c1cc3c(cc1OC)N(C)[C@H]1[C@@](O)(C(=O)OC)[C@H](OC(C)=O)[C@]4(CC)C=CCN5CC[C@]31[C@@H]54)C2` [VINORELBINE]?
pIC50 [1]: 8.44; pIC50 [2]: 7.48; pIC50 [3]: 7.53; pIC50 [4]: < 7.19; pIC50 [5]: 8.00; pIC50 [6]: 8.41; pIC50 [7]: 8.37; pIC50 [8]: 7.31; pIC50 [9]: 8.00; pIC50 [10]: < 7.19; pIC50 [11]: < 7.19; pIC50 [12]: 9.13; pIC50 [13]: < 7.19; pIC50 [14]: < 7.19; pIC50 [15]: 7.82; pIC50 [16]: 8.16; pIC50 [17]: < 7.19; pIC50 [18]: 7.29; pIC50 [19]: < 7.19; pIC50 [20]: < 7.19; pIC50 [21]: 8.54; pIC50 [22]: 8.10; pIC50 [23]: 7.68; pIC50 [24]: 8.08; pIC50 [25]: 7.69; pIC50 [26]: 8.41; pIC50 [27]: 7.45; pIC50 [28]: < 7.19; pIC50 [29]: 7.68; pIC50 [30]: < 7.19; pIC50 [31]: 7.60; pIC50 [32]: 8.72; pIC50 [33]: 7.62; pIC50 [34]: 7.58; pIC50 [35]: 8.57; pIC50 [36]: 8.53; pIC50 [37]: 8.00; pIC50 [38]: < 7.19; pIC50 [39]: < 7.19; pIC50 [40]: 7.23; pIC50 [41]: 8.04; pIC50 [42]: 8.22; pIC50 [43]: 8.06; pIC50 [44]: 8.15; pIC50 [45]: 8.59; pIC50 [46]: 8.39; pIC50 [47]: 8.65; pIC50 [48]: 8.41; pIC50 [49]: < 7.19; pIC50 [50]: 7.41

Source: ChEMBL document CHEMBL1201861, “Genomics of Drug Sensitity in Cancer screening data, Wellcome Trust Sanger Institute”
